Test in all cases: relative viability (nuclei count vs DMSO), 5 days (fraction); higher = more cells survive
Compound in the assay “Fedratinib + Lapatinib”: Cc1cnc(Nc2ccc(OCCN3CCCC3)cc2)nc1Nc1cccc(S(=O)(=O)NC(C)(C)C)c1 [Fedratinib] + CS(=O)(=O)CCNCc1ccc(-c2ccc3ncnc(Nc4ccc(OCc5cccc(F)c5)c(Cl)c4)c3c2)o1 [Lapatinib] (partner 2 µM)
The method in brief: (§1)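 Nuclei were stained with Hoechst during a one-step fixation (final 0.05% Triton X-100, 1% formaldehyde, 1 ug/ml Hoechst) carried out 5 days after dosing, then counted on 4× images. The cells, lung cancer lines in 1536-well plates, had been dosed by pin tool the day after seeding with one drug alone or a fixed anchor-drug dose plus five library-drug doses (not always all listed) in √10 steps. Relative viability is the nuclei count in treated wells divided by that in vehicle wells, and each value is the median of duplicate plates.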

Compound in the assay “GW-2580 + Pemetrexed”: COC1=CC=C(C=C1)COC2=C(C=C(C=C2)CC3=CN=C(N=C3N)N)OC [GW-2580] + Nc1nc2[nH]cc(CCc3ccc(C(=O)N[C@@H](CCC(=O)O)C(=O)O)cc3)c2c(=O)[nH]1 [Pemetrexed] (partner 0.2 µM)
An outline of the steps:
as §1

Compound in the assay “Fedratinib + Luminespib”: Cc1cnc(Nc2ccc(OCCN3CCCC3)cc2)nc1Nc1cccc(S(=O)(=O)NC(C)(C)C)c1 [Fedratinib] + CCNC(=O)c1noc(-c2cc(C(C)C)c(O)cc2O)c1-c1ccc(CN2CCOCC2)cc1 [Luminespib] (partner 0.01 µM)
The method in brief:
as §1

Compound in the assay “GW-2580 + Luminespib”: COC1=CC=C(C=C1)COC2=C(C=C(C=C2)CC3=CN=C(N=C3N)N)OC [GW-2580] + CCNC(=O)c1noc(-c2cc(C(C)C)c(O)cc2O)c1-c1ccc(CN2CCOCC2)cc1 [Luminespib] (partner 0.01 µM)
An outline of the steps:
as §1

Compound in the assay “Fedratinib + OSI-027”: Cc1cnc(Nc2ccc(OCCN3CCCC3)cc2)nc1Nc1cccc(S(=O)(=O)NC(C)(C)C)c1 [Fedratinib] + COc1cccc2cc(-c3nc([C@H]4CC[C@H](C(=O)O)CC4)n4ncnc(N)c34)[nH]c12 [OSI-027] (partner 0.5 µM)
The method in brief:
as §1

Regarding SK-LU-1, the relative viability with Fedratinib + Lapatinib (first compound 0.1 µM) is 0.851; with Fedratinib + Lapatinib (first compound 0.3162 µM), 0.871; with Fedratinib + Lapatinib (first compound 1 µM) it was 0.578; with GW-2580 + Pemetrexed (first compound 0.08 µM), 1.09; with GW-2580 + Pemetrexed (first compound 0.8 µM), 1.05; in the assay with GW-2580 + Pemetrexed (first compound 2.53 µM) it was 0.878. In addition, the relative viability with GW-2580 + Pemetrexed (first compound 8 µM) worked out at 0.996; in the assay with Fedratinib + Luminespib (first compound 0.1 µM), 0.181; with Fedratinib + Luminespib (first compound 0.3162 µM), 0.19; with Fedratinib + Luminespib (first compound 1 µM), 0.16; with GW-2580 + Luminespib (first compound 0.08 µM), 0.206; with GW-2580 + Luminespib (first compound 0.8 µM) it was 0.183. Moreover, the relative viability with GW-2580 + Luminespib (first compound 2.53 µM) is 0.212; with GW-2580 + Luminespib (first compound 8 µM), 0.206; in the assay with Fedratinib + OSI-027 (first compound 0.1 µM) it was 0.307; in the assay with Fedratinib + OSI-027 (first compound 0.3162 µM), 0.35; with Fedratinib + OSI-027 (first compound 1 µM), 0.289.
Take SK-MES-1: the relative viability came out at 0.469 with Fedratinib + Lapatinib (first compound 0.1 µM); 0.481 with Fedratinib + Lapatinib (first compound 0.3162 µM); 0.458 with Fedratinib + Lapatinib (first compound 1 µM); 1.01 in the assay with GW-2580 + Pemetrexed (first compound 0.08 µM); 1.04 with GW-2580 + Pemetrexed (first compound 0.8 µM); 0.878 with GW-2580 + Pemetrexed (first compound 2.53 µM). Further, the relative viability with GW-2580 + Pemetrexed (first compound 8 µM) was found to be 0.824; with Fedratinib + Luminespib (first compound 0.1 µM), 0.741; with Fedratinib + Luminespib (first compound 0.3162 µM), 0.773; with Fedratinib + Luminespib (first compound 1 µM), 0.609; with GW-2580 + Luminespib (first compound 0.08 µM), 0.869; with GW-2580 + Luminespib (first compound 0.8 µM) it was 0.989. In addition, the relative viability with GW-2580 + Luminespib (first compound 2.53 µM) amounted to 0.701; in the assay with GW-2580 + Luminespib (first compound 8 µM), 0.83; with Fedratinib + OSI-027 (first compound 0.1 µM), 0.544; with Fedratinib + OSI-027 (first compound 0.3162 µM), 0.6; with Fedratinib + OSI-027 (first compound 1 µM), 0.436.
With SW 1573, the relative viability was determined as 1.13 with Fedratinib + Lapatinib (first compound 0.1 µM); 1.15 with Fedratinib + Lapatinib (first compound 0.3162 µM); 1.01 with Fedratinib + Lapatinib (first compound 1 µM); 0.908 with GW-2580 + Pemetrexed (first compound 0.08 µM); 0.883 in the assay with GW-2580 + Pemetrexed (first compound 0.8 µM); 0.861 in the assay with GW-2580 + Pemetrexed (first compound 2.53 µM). Besides, the relative viability worked out at 0.639 with GW-2580 + Pemetrexed (first compound 8 µM); 0.548 with Fedratinib + Luminespib (first compound 0.1 µM); 0.26 with Fedratinib + Luminespib (first compound 0.3162 µM); 0.145 with Fedratinib + Luminespib (first compound 1 µM); 0.257 with GW-2580 + Luminespib (first compound 0.08 µM); 0.213 in the assay with GW-2580 + Luminespib (first compound 0.8 µM). Besides, the relative viability with GW-2580 + Luminespib (first compound 2.53 µM) was 0.24; in the assay with GW-2580 + Luminespib (first compound 8 µM), 0.217; in the assay with Fedratinib + OSI-027 (first compound 0.1 µM), 0.564; in the assay with Fedratinib + OSI-027 (first compound 0.3162 µM) it was 0.635; with Fedratinib + OSI-027 (first compound 1 µM), 0.394.
On to UMC-11, for which the relative viability is 0.825 with Fedratinib + Lapatinib (first compound 0.1 µM); 1.08 with Fedratinib + Lapatinib (first compound 0.3162 µM); 0.284 in the assay with Fedratinib + Lapatinib (first compound 1 µM); 0.948 with GW-2580 + Pemetrexed (first compound 0.08 µM); 0.939 in the assay with GW-2580 + Pemetrexed (first compound 0.8 µM); 0.754 in the assay with GW-2580 + Pemetrexed (first compound 2.53 µM). The relative viability with GW-2580 + Pemetrexed (first compound 8 µM) was found to be 0.718; in the assay with Fedratinib + Luminespib (first compound 0.1 µM) it was 0.984; with Fedratinib + Luminespib (first compound 0.3162 µM), 0.887; with Fedratinib + Luminespib (first compound 1 µM), 0.758; with GW-2580 + Luminespib (first compound 0.08 µM) it was 0.992; with GW-2580 + Luminespib (first compound 0.8 µM), 1.1. Further, the relative viability with GW-2580 + Luminespib (first compound 2.53 µM) was 1.12; with GW-2580 + Luminespib (first compound 8 µM) it was 1.16; with Fedratinib + OSI-027 (first compound 0.1 µM), 0.473; in the assay with Fedratinib + OSI-027 (first compound 0.3162 µM) it was 0.452; in the assay with Fedratinib + OSI-027 (first compound 1 µM), 0.373.

Source of the values: the supplement of paper PMC10307832.
